# In ChEMBL document CHEMBL4251601 (Eur J Med Chem, 2018):
# pIC50: −log10 of the molar value.
# What was measured:
# [1] = Half life in CD-1 mouse liver microsomes at 10 uM preincubated for 5 mins followed by NADP addition by LC-MS/MS analysis; type: ADME, microsome
# [2] = Intrinsic clearance in CD-1 mouse liver microsomes at 10 uM preincubated for 5 mins followed by NADP addition by LC-MS/MS analysis; type: ADME, microsome; conditions: read-out: CLH
# [3] = Stability in CD-1 mouse liver microsomes assessed as parent compound remaining at 10 uM preincubated for 5 mins followed by NADP addition measured after 60 mins by LC-MS/MS analysis; type: ADME, microsome; conditions: read-out: Stability
# [4] = Stability in CD-1 mouse liver microsomes assessed as parent compound remaining at 10 uM measured after 60 mins in absence of NADPH-regenerating system by LC-MS/MS analysis; type: ADME, microsome; conditions: read-out: Stability
# CDK6/cyclin D3 = CDK6/cyclin D3 (Homo sapiens, UniProt Q00534); experiment: Inhibition of CDK6/Cyclin-D3 (unknown origin) using histoneH1 as substrate after 90 mins by ADP-Glo assay; type: protein-complex assay
# [5] = biological target: Cyclin-dependent kinase 4/cyclin D1 (Homo sapiens, UniProt P11802); experiment: Inhibition of CDK4/Cyclin-D1 (unknown origin) using histone-H1 as substrate after 90 mins by ADP-Glo assay; type: protein-complex assay
# [6] = Clearance in Sprague-Dawley rat at 2 mg/kg, iv administered as single dose by LC-MS/MS analysis; type: ADME, organism-based; conditions: in vivo
# [7] = Volume of distribution at steady state in Sprague-Dawley rat at 2 mg/kg, iv administered as single dose by LC-MS/MS analysis; type: ADME, organism-based; conditions: in vivo, read-out: Vdss
# [8] = Cmax in Sprague-Dawley rat at 5 mg/kg, po administered as single dose by LC-MS/MS analysis; type: ADME, organism-based; design: dose 5 mg/kg, route oral; conditions: in vivo
# [9] = AUC (0 to 24 hrs) in Sprague-Dawley rat at 2 mg/kg, iv administered as single dose by LC-MS/MS analysis; type: ADME, organism-based; design: dose 2 mg/kg, time < 24 hr, route intravenous; conditions: in vivo
# [10] = AUC (0 to 24 hrs) in Sprague-Dawley rat at 5 mg/kg, po administered as single dose by LC-MS/MS analysis; type: ADME, organism-based; design: time < 24 hr, dose 5 mg/kg, route oral; conditions: in vivo
# [11] = (§1) AUC (0 to infinity) in Sprague-Dawley rat at 2 mg/kg, iv administered as single dose by LC-MS/MS analysis; type: ADME, organism-based; design: dose 2 mg/kg, route intravenous, time infinity; conditions: Sprague-Dawley, in vivo
# [12] = (§2) AUC (0 to infinity) in Sprague-Dawley rat at 5 mg/kg, po administered as single dose by LC-MS/MS analysis; type: ADME, organism-based; design: dose 5 mg/kg, route oral, time infinity; conditions: Sprague-Dawley, in vivo
# [13] = Half life in Sprague-Dawley rat at 2 mg/kg, iv administered as single dose by LC-MS/MS analysis; type: ADME, organism-based; conditions: in vivo
# [14] = Half life in Sprague-Dawley rat at 5 mg/kg, po administered as single dose by LC-MS/MS analysis; type: ADME, organism-based; conditions: in vivo
# [15] = (§3) Oral bioavailability in Sprague-Dawley rat at 5 mg/kg administered as single dose by LC-MS/MS analysis; type: ADME, organism-based; conditions: Sprague-Dawley, in vivo
# [16] = Unbound brain to plasma concentration ratio in mouse at 30 mg/kg, po; type: ADME, organism-based; conditions: read-out: K(p,uu,brain)
# U-87 MG = experiment: Antiproliferative activity against human U87MG cells after 72 hrs by DAPI staining based assay; type: functional, cell-based, U-87MG ATCC
# [17] = Unbound brain to plasma concentration ratio in mouse at 1 mg/kg, iv after 5 mins; type: ADME, organism-based; conditions: read-out: K(p,uu,brain)
# [18] = Unbound brain to plasma concentration ratio in CD-1 nude mouse at 100 mg/kg, po; type: ADME, organism-based; conditions: read-out: K(p,uu,brain)
# Homo sapiens = species: Homo sapiens; experiment: Selectivity ratio of IC50 for CDK1/Cyclin-A2 (unknown origin) to IC50 for CDK6/Cyclin-D3 (unknown origin)
# Rattus norvegicus [19] = experiment: as §1; type: ADME, organism-based; design: dose 2 mg/kg, route intravenous, time infinity; conditions: in vivo
# Rattus norvegicus [20] = experiment: as §2; type: ADME, organism-based; design: dose 5 mg/kg, route oral, time infinity; conditions: in vivo
# Rattus norvegicus [21] = experiment: as §3; type: ADME, organism-based; conditions: in vivo
# Chain of CDK6/cyclin D3 (P30281 whole entry): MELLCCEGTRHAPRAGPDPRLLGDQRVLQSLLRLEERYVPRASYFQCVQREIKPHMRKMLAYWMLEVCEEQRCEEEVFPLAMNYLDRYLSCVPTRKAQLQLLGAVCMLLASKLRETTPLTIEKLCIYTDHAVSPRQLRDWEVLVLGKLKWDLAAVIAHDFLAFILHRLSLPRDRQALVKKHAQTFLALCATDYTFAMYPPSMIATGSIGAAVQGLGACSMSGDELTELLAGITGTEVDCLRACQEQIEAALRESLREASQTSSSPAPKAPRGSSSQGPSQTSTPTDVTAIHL
# Chain of CDK6/cyclin D3 (Q00534 whole entry): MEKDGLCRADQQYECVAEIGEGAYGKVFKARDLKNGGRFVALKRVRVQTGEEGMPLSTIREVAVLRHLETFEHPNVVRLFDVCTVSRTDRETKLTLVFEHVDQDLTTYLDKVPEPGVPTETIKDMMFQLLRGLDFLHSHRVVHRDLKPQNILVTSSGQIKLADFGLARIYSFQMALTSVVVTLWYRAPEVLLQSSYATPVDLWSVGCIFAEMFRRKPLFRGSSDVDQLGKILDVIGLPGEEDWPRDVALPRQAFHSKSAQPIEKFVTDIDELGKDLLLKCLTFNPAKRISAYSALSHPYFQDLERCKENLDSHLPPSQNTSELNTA
# Chain of Cyclin-dependent kinase 4/cyclin D1 (P11802 whole entry): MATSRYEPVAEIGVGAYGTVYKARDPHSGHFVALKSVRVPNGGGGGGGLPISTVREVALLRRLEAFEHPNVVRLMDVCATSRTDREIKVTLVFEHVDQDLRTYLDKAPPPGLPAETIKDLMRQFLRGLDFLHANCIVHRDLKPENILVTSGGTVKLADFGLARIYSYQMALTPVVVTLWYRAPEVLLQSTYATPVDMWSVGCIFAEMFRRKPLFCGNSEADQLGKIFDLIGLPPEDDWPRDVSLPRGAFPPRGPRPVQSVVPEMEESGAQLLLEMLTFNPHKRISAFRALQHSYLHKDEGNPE
# Chain of Cyclin-dependent kinase 4/cyclin D1 (P24385 whole entry, further chain): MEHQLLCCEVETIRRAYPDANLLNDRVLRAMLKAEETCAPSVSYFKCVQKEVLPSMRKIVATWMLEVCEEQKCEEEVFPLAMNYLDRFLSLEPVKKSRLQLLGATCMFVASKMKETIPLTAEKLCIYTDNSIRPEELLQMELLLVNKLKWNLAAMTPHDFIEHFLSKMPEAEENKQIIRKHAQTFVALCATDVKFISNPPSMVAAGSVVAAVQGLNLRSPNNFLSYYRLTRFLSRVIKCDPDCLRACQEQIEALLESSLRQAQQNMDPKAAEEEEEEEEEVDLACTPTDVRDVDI
compound,measurement,setting,value
CCN1CCN(Cc2ccc(Nc3ncc(F)c(-c4cc(F)c5c(c4)C4(CCCC4)C(C)=N5)n3)nc2)CC1,half-life at 10 µM,[1],8.1 min
same,microsomal CLint at 10 µM,[2],171 µL/min/mg
same,"remaining at 1 h, 10 µM",[3],1%
same,"remaining at 1 h, 10 µM",[4],81.1%
same,pIC50,CDK6/cyclin D3,8.70
same,pIC50,[5],7.92
same,clearance,[6],48.9 mL/min/kg
same,Vd,[7],16.7 L/kg
same,Cmax,[8],77.1 ng/mL
same,AUC(0-t) at 24 h,[9],670 ng·h/mL
same,AUC(0-t) at 24 h,[10],813 ng·h/mL
same,AUC(0-inf),[11],686 ng·h/mL
same,AUC(0-inf),[12],827 ng·h/mL
same,half-life,[13],4.6 h
same,half-life,[14],3.6 h
same,bioavailability,[15],48%
CCN1CCN(Cc2ccc(Nc3ncc(F)c(-c4cc(F)c5nc(C)n(C(C)C)c5c4)n3)nc2)CC1 [ABEMACICLIB],Kp uu,[16],0.03
same,pIC50,U-87 MG,7.32
CC(=O)c1c(C)c2cnc(Nc3ccc(N4CCNCC4)cn3)nc2n(C2CCCC2)c1=O [PALBOCICLIB],Kp uu at 5 min,[17],0.01
CN(C)C(=O)c1cc2cnc(Nc3ccc(N4CCNCC4)cn3)nc2n1C1CCCC1 [RIBOCICLIB],Kp uu,[18],0.12
CCN1CCN(c2ccc(Nc3ncc(F)c(-c4ccc5c(c4)C4(CCCC4)C(C)=N5)n3)nc2)CC1,Ratio IC50,Homo sapiens,18
same,clearance,[6],16.9 mL/min/kg
same,Vd,[7],7.1 L/kg
same,Cmax,[8],99.9 ng/mL
same,AUC(0-t) at 24 h,[9],1900 ng·h/mL
same,AUC(0-t) at 24 h,[10],1200 ng·h/mL
same,AUC,Rattus norvegicus [19],2000 ng·h/mL
same,AUC,Rattus norvegicus [20],3651 ng·h/mL
same,half-life,[13],6.1 h
same,F,Rattus norvegicus [21],25%
